Reference: ChEMBL document CHEMBL6120999, “Total Synthesis and Anti-Inflammatory Activity of Tectoridin and Related Isoflavone Glucosides” (J Nat Prod, 2025)
Activity calls are given as the source filed them. No cut-off for these calls is given here.

How the values were obtained:
RAW264.7 [1] = assay: Cytotoxicity against mouse RAW264.7 cells assessed as effect on cell viability at 50 uM measured after 24 hrs by CCK-8 assay; type: toxicity, cell-based; conditions: raw264.7, 24 h
RAW264.7 [2] = assay: Anti-inflammatory activity in mouse RAW264.7 cells assessed as inhibition of LPS-induced NO production preincubated for 1 hr followed by LPS stimulation for 24 hrs by Griess reagent assay; type: functional, cell-based; conditions: for Activity: time 25.0 hrs
RAW264.7 [3] = assay: Anti-inflammatory activity in mouse RAW264.7 cells assessed as reduction in LPS-induced NO production at 50 uM preincubated for 1 hr followed by LPS stimulation for 24 hrs by Griess reagent assay relative to control; type: functional; parameters: scale not given: the % may be the effect or the level left; conditions: time 25 hrs
RAW264.7 [4] = assay: Anti-inflammatory activity against LPS-induced mouse RAW264.7 cells assessed as decrease in TNF-alpha gene expression by RT-qPCR analysis; type: functional, cell-based; conditions: dose 10-50 µM
RAW264.7 [5] = assay: Anti-inflammatory activity against LPS-induced mouse RAW264.7 cells assessed as reduction in TNF-alpha gene expression at 50 uM treated for 24 hrs by RT-qPCR analysis relative to control; type: functional; parameters: scale not given: the % may be the effect or the level left
RAW264.7 [6] = assay: Anti-inflammatory activity against LPS-induced mouse RAW264.7 cells assessed as decrease in IL-6 gene expression at 50 uM treated for 24 hrs by RT-qPCR analysis relative to control; type: functional; parameters: scale not given: the % may be the effect or the level left
RAW264.7 [7] = assay: Anti-inflammatory activity against LPS-induced mouse RAW264.7 cells assessed as reduction in IL-1beta gene expression at 50 uM treated for 24 hrs by RT-qPCR analysis relative to control; type: functional; parameters: scale not given: the % may be the effect or the level left
RAW264.7 [8] = assay: Anti-inflammatory activity against LPS-induced mouse RAW264.7 cells assessed as decrease in IL-6 gene expression by RT-qPCR analysis; type: functional, cell-based; conditions: dose 10-50 µM
RAW264.7 [9] = assay: Anti-inflammatory activity against LPS-induced mouse RAW264.7 cells assessed as decrease in IL-1beta gene expression by RT-qPCR analysis; type: functional, cell-based; conditions: dose 10-50 µM
RAW264.7 [10] = assay: Anti-inflammatory activity against LPS-induced mouse RAW264.7 cells assessed as inhibition in TNF-alpha release at 50 uM by ELISA; type: functional, cell-based
RAW264.7 [11] = assay: Anti-inflammatory activity against LPS-induced mouse RAW264.7 cells assessed as inhibition in IL-6 release at 50 uM by ELISA; type: functional, cell-based
RAW264.7 [12] = assay: Anti-inflammatory activity in mouse RAW264.7 cells assessed as inhibition of LPS-induced NO production at 25 to 50 uM preincubated for 1 hr followed by LPS stimulation for 24 hrs by Griess reagent assay; type: functional, cell-based; conditions: dose 25-50 µM, time 25.0 hrs
RAW264.7 [13] = assay: Anti-inflammatory activity against LPS-induced mouse RAW264.7 cells assessed as effect on TNF-alpha gene expression at 50 uM treated for 24 hrs by RT-qPCR analysis; type: functional, cell-based
RAW264.7 [14] = assay: Anti-inflammatory activity against LPS-induced mouse RAW264.7 cells assessed as change in IL-6 gene expression at 50 uM treated for 24 hrs by RT-qPCR analysis; type: functional, cell-based
RAW264.7 [15] = assay: Anti-inflammatory activity against LPS-induced mouse RAW264.7 cells assessed as reduction in IL-1beta gene expression at 50 uM treated for 24 hrs by RT-qPCR analysis; type: functional, cell-based

IC50 (RAW264.7 [2])	SMILES	Activity (RAW264.7 [1])	Activity (RAW264.7 [2])	Activity (RAW264.7 [3])	Activity (RAW264.7 [4])	Activity (RAW264.7 [5])	Activity (RAW264.7 [6])	Activity (RAW264.7 [7])	Activity (RAW264.7 [8])	Activity (RAW264.7 [9])	Activity (RAW264.7 [10])	Activity (RAW264.7 [11])	Activity (RAW264.7 [12])	Activity (RAW264.7 [13])	Activity (RAW264.7 [14])	Activity (RAW264.7 [15])
51.7 µM	COc1c(O)cc2occ(-c3ccc(O)cc3)c(=O)c2c1O [TECTORIGENIN]	Non-toxic	Dose-dependent-effect	48.4%	Dose-dependent-effect	40%	87.8%	90.8%	Dose-dependent-effect	Dose-dependent-effect	Active	Active	–	–	–	–
–	COc1c(O[C@@H]2O[C@H](CO)[C@@H](O)[C@H](O)[C@H]2O)cc2occ(-c3ccc(O)cc3)c(=O)c2c1O [TECTORIDIN]	Non-toxic	–	–	–	–	–	31.2%	–	–	–	–	inactive	inactive	inactive	–
–	COc1cc(C(=O)OC[C@H]2O[C@@H](Oc3cc4occ(-c5ccc(O)cc5)c(=O)c4c(O)c3OC)[C@H](O)[C@@H](O)[C@@H]2O)ccc1O	Non-toxic	–	–	–	–	–	4.1%	–	–	–	–	inactive	Not active; Increase In Tnf-Alpha Gene Expression Observed	Not active; Increase In Il-6 Gene Expression Observed	–
–	COc1c(O[C@@H]2O[C@H](CO)[C@@H](O)[C@H](O)[C@H]2O)cc(O)c2c(=O)c(-c3ccc(O)cc3)coc12	Non-toxic	–	–	–	–	–	14.4%	–	–	–	–	inactive	inactive	inactive	–
–	COc1c(O[C@@H]2O[C@H](CO)[C@@H](O)[C@H](O)[C@H]2O)cc2occ(-c3ccc(O[C@@H]4O[C@H](CO)[C@@H](O)[C@H](O)[C@H]4O)cc3)c(=O)c2c1O	Non-toxic	–	–	–	–	–	–	–	–	–	–	inactive	inactive	inactive	Not active; Increase In Il-1Beta Gene Expression Observed
26.8 µM	COc1c(O)cc(O)c2c(=O)c(-c3ccc(O)cc3)coc12 [PSI-TECTORIGENIN]	Non-toxic	Dose-dependent-effect	~100%	Dose-dependent-effect	46.3%	56%	61%	Dose-dependent-effect	Dose-dependent-effect	Active	Active	–	–	–	–
